Some test systems named below: SW-620 colon; OVCAR-5 ovarian; OVCAR-8 ovarian; M14 melanoma; HCC-2998 colon; RXF 393 renal; SNB-19 CNS; IGROV1 ovarian; TK-10 renal; HS 578T breast; SF-295 CNS; SK-MEL-5 melanoma; 786-0 renal; UACC-257 melanoma; NCI-H23 lung; KM12 colon; UACC-62 melanoma.
Test in all cases: NCI-60 cell line screen, 48 h

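96-well plates; 48 h exposure; 5 concentrations. Endpoints by linear interpolation between flanking doses. Not reached: highest tested concentration assigned. The concentration for full growth arrest is given as TGI.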 Where only a bound is given, the exact number is not on record here.

Regarding `CCCCCCCCCCCCCCCCOP(=O)(O)OCC(NC(C)=O)C(=O)O` (stereo not given), the TGI in the test with SW-620 colon is more than 100 µM; in the test with OVCAR-5 ovarian, more than 100 µM; in the test with OVCAR-8 ovarian it was more than 100 µM; in the test on M14 melanoma it was more than 100 µM; in the test with HCC-2998 colon, more than 100 µM; in the test with RXF 393 renal, 48.3 µM. Also, the TGI was 35.6 µM in the test with SNB-19 CNS; 62.2 µM in the test with IGROV1 ovarian; 62.6 µM with TK-10 renal; more than 100 µM with HS 578T breast; 47.4 µM with SF-295 CNS; more than 100 µM in the test on SK-MEL-5 melanoma. Besides, the TGI in the test on 786-0 renal, in the test with UACC-257 melanoma and in the test on NCI-H23 lung was more than 100 µM each time.

As to `c1ccc(C(=NCCC2CNc3ccccc32)c2ccccc2)cc1` (stereo not given), the TGI with SW-620 colon, in the test with OVCAR-5 ovarian, with OVCAR-8 ovarian, in the test on M14 melanoma, in the test on HCC-2998 colon and with RXF 393 renal was more than 100 µM each time. The TGI in the test with SNB-19 CNS, in the test on IGROV1 ovarian, in the test with HS 578T breast, in the test on SF-295 CNS, in the test with SK-MEL-5 melanoma and in the test on 786-0 renal was more than 100 µM in each case. Further, the TGI with UACC-257 melanoma, in the test with NCI-H23 lung, with KM12 colon and in the test on UACC-62 melanoma was more than 100 µM in each case.

With `O=C1NNC2NC(=O)C3(NN2C1=O)c1ccccc1-c1ccccc13` (stereo not given), the TGI in the test on SW-620 colon, with OVCAR-5 ovarian, in the test on OVCAR-8 ovarian, in the test with M14 melanoma, in the test with HCC-2998 colon and in the test on RXF 393 renal was more than 100 µM throughout. Besides, the TGI in the test with SNB-19 CNS, in the test with IGROV1 ovarian, in the test with TK-10 renal, in the test on HS 578T breast, with SF-295 CNS and in the test with SK-MEL-5 melanoma was more than 100 µM in each case. For the same compound, the TGI in the test with 786-0 renal, in the test on UACC-257 melanoma, with NCI-H23 lung and in the test on UACC-62 melanoma was more than 100 µM in each case.

Turning to `O=C(NC(Cc1cnc[nH]1)C(=O)N1CCCC1)C1CCCC1` (stereo not given), the TGI with SW-620 colon, with OVCAR-5 ovarian, in the test with OVCAR-8 ovarian, in the test with M14 melanoma, in the test on HCC-2998 colon and in the test with RXF 393 renal was more than 100 µM throughout. Moreover, the TGI in the test with SNB-19 CNS, in the test on IGROV1 ovarian, in the test on TK-10 renal, in the test on HS 578T breast, in the test with SF-295 CNS and in the test with SK-MEL-5 melanoma was more than 100 µM each time. The TGI with 786-0 renal, in the test with NCI-H23 lung, in the test with KM12 colon and in the test on UACC-62 melanoma was more than 100 µM in each case.

As to `CN(C)c1ccc(C2CC(c3ccc4ccccc4c3O)=NN2c2ccc([N+](=O)[O-])cc2[N+](=O)[O-])cc1` (stereo not given), the TGI in the test with SW-620 colon, in the test with OVCAR-5 ovarian, with OVCAR-8 ovarian, with M14 melanoma, in the test with HCC-2998 colon and with RXF 393 renal was more than 100 µM throughout. Moreover, the TGI in the test on IGROV1 ovarian, with TK-10 renal, with HS 578T breast, in the test with SF-295 CNS, in the test with 786-0 renal and in the test with UACC-257 melanoma was more than 100 µM in each case. Also, the TGI with NCI-H23 lung was 77.7 µM; with KM12 colon it was more than 100 µM; with UACC-62 melanoma, 37.2 µM.

`N=CN=CC(=S)O[C@@H]1C(=O)N2CCC[C@@]23CCCC[C@@H]13`: the TGI in the test on OVCAR-5 ovarian, in the test on OVCAR-8 ovarian, in the test with M14 melanoma, with HCC-2998 colon, in the test on RXF 393 renal and in the test on SNB-19 CNS was more than 12.5 µM each time. Further, the TGI in the test with IGROV1 ovarian, in the test with TK-10 renal, in the test with HS 578T breast, in the test on SF-295 CNS, in the test with SK-MEL-5 melanoma and in the test with 786-0 renal was more than 12.5 µM each time. Besides, the TGI with UACC-257 melanoma, in the test with NCI-H23 lung, in the test with KM12 colon and in the test with UACC-62 melanoma was more than 12.5 µM each time.

For `COC(=O)C(COC(=O)/C=C/c1ccc(OC(C)=O)c(OC(C)=O)c1)NC(=O)/C=C/c1ccc(OC(C)=O)c(OC(C)=O)c1` (stereo not given), the TGI with SW-620 colon was more than 100 µM; in the test on OVCAR-5 ovarian, more than 100 µM; with OVCAR-8 ovarian, more than 100 µM; in the test with M14 melanoma it was 39.5 µM; in the test on HCC-2998 colon, 47.3 µM; with RXF 393 renal it was more than 100 µM. Moreover, the TGI was more than 100 µM with SNB-19 CNS; more than 100 µM in the test on IGROV1 ovarian; more than 100 µM in the test with HS 578T breast; 29.7 µM in the test with SK-MEL-5 melanoma; 47.2 µM in the test with 786-0 renal; more than 100 µM in the test with UACC-257 melanoma. For the same compound, the figures for the TGI in the test on NCI-H23 lung, in the test on KM12 colon and with UACC-62 melanoma were 73.4 µM, 38.8 µM and 35.1 µM, respectively.

In the case of `O=S1(=O)OCCOS(=O)(=O)C1Cc1cccc2ccccc12`, the TGI with SW-620 colon is more than 100 µM; in the test with OVCAR-5 ovarian, 60.9 µM; in the test with OVCAR-8 ovarian it was 34.7 µM; in the test with M14 melanoma, 54.9 µM; with HCC-2998 colon, 43 µM; in the test on RXF 393 renal it was 12 µM. For the same compound, the TGI is 87.3 µM in the test on SNB-19 CNS; 28.6 µM with IGROV1 ovarian; more than 100 µM with TK-10 renal; 84.9 µM with HS 578T breast; more than 100 µM in the test with SF-295 CNS; 28.2 µM in the test on SK-MEL-5 melanoma. The TGI in the test on 786-0 renal turned out to be 54.8 µM; in the test on UACC-257 melanoma it was 34.2 µM; with NCI-H23 lung, 79.5 µM; in the test with UACC-62 melanoma, 57.2 µM.

Turning to `CCN(CC)C(=S)SC(C(=O)Nc1nnc(-c2ccccc2)o1)c1ccccc1` (stereo not given), the TGI in the test with SW-620 colon was more than 100 µM; in the test on OVCAR-5 ovarian, 56.1 µM; in the test on OVCAR-8 ovarian, more than 100 µM; in the test with M14 melanoma it was 42 µM; in the test with RXF 393 renal, 39.8 µM; in the test on SNB-19 CNS it was more than 100 µM. The TGI is more than 100 µM with IGROV1 ovarian; more than 100 µM with TK-10 renal; more than 100 µM in the test with HS 578T breast; more than 100 µM in the test on SF-295 CNS; 28.8 µM with SK-MEL-5 melanoma; 61.1 µM in the test on 786-0 renal. The TGI amounted to 74.5 µM in the test on UACC-257 melanoma, 34.2 µM in the test on NCI-H23 lung and 62.7 µM in the test with KM12 colon.

Values taken from PubChem BioAssay (NCI).
